Results published in patent publication US11447465B2, “Pharmaceutical compounds for treatment of medical disorders” (Achillion Pharmaceuticals, Inc., priority 2017, dated 2022).

What follows are compounds tested against Human Factor D (Homo sapiens (Human), UniProt P00746) (assay: Human Factor D Assay). Settings: Table 7; read-out: IC5 (Stars).
Type: biochemical
In short: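 Serum-purified human factor D (80 nM final) preincubated with compound 5 min at room temperature in 50 mM Tris, 1 M NaCl, pH 7.5. Z-L-Lys-SBzl and DTNB added at 100 μM each; A405 followed every 30 s for 30 min. IC50 by nonlinear regression of rates.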

Sequence of Human Factor D (P00746 26-253): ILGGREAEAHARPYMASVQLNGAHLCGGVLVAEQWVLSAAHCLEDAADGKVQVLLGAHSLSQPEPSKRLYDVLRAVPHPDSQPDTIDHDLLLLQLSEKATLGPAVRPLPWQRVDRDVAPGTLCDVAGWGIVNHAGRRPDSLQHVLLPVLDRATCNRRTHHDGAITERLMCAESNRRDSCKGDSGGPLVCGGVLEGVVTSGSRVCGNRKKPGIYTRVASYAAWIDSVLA

`COc1ncc(-c2cccc(CC(=O)N3[C@H](C(=O)Nc4nc(Br)ccc4C)C[C@@]4(C)C[C@@H]34)c2)cn1` [Compound T-95, (1R,3S,5R)-N-(6-bromo-3-methylpyridin-2-yl)-2-(2-(3-(2-methoxypyrimidin-5-yl)phenyl)acetyl)-5-methyl-2-azabicyclo[3.1.0]hexane-3-carboxamide] and `Cc1ccc(Br)nc1NC(=O)[C@@H]1C[C@@]2(C)C[C@H]2N1C(=O)Cc1cccc(-c2cnc(O)nc2)c1` [Compound T-96, (1R,3S,5R)-N-(6-bromo-3-methylpyridin-2-yl)-2-(2-(3-(2-hydroxypyrimidin-5-yl)phenyl)acetyl)-5-methyl-2-azabicyclo[3.1.0]hexane-3-carboxamide] cannot be ordered by IC50: greater than 10 µM for the first, greater than 10 µM for the second.

First: COc1cc(CC(=O)N2[C@H](C(=O)Nc3nc(Br)ccc3C)C[C@@]3(C)C[C@@H]23)cc(-c2cnc(OC)nc2)c1 [Compound T-97, (1R,3S,5R)-N-(6-bromo-3-methylpyridin-2-yl)-2-(2-(3-methoxy-5-(2-methoxypyrimidin-5-yl)phenyl)acetyl)-5-methyl-2-azabicyclo[3.1.0]hexane-3-carboxamide]
Second: COc1cc(CC(=O)N2[C@H](C(=O)Nc3nc(Br)ccc3C)C[C@@]3(C)C[C@@H]23)cc(-c2cnc(O)nc2)c1 [Compound T-101, (1R,3S,5R)-N-(6-bromo-3-methylpyridin-2-yl)-2-(2-(3-(2-hydroxypyrimidin-5-yl)-5-methoxyphenyl)acetyl)-5-methyl-2-azabicyclo[3.1.0]hexane-3-carboxamide]
The IC50 of the first is higher: 1 to 10 µM for the first, less than 1 µM for the second. The second is the more potent here.

First: Cc1ccc(Br)nc1NC(=O)[C@@H]1C[C@@]2(C)C[C@H]2N1C(=O)Cc1ccc2[nH]nc(C(N)=O)c2c1 [Compound T-98, 5-(2-((1R,3S,5R)-3-((6-bromo-3-methylpyridin-2-yl)carbamoyl)-5-methyl-2-azabicyclo[3.1.0]hexan-2-yl)-2-oxoethyl)-1H-indazole-3-carboxamide]
Second: Cc1ccc(Br)nc1NC(=O)[C@@H]1C[C@@]2(C)C[C@H]2N1C(=O)Cc1ccc2[nH]nc(C(=O)O)c2c1 [Compound T-102, 5-(2-((1R,3S,5R)-3-((6-bromo-3-methylpyridin-2-yl)carbamoyl)-5-methyl-2-azabicyclo[3.1.0]hexan-2-yl)-2-oxoethyl)-1H-indazole-3-carboxylic acid]
The IC50 of the first is higher: greater than 10 µM for the first, 1 to 10 µM for the second.

First: Cc1ccc(Br)nc1NC(=O)[C@@H]1C[C@@]2(C)C[C@H]2N1C(=O)Cc1ccc2[nH]nc(Cl)c2c1 [Compound T-99, (1R,3S,5R)-N-(6-bromo-3-methylpyridin-2-yl)-2-(2-(3-chloro-1H-indazol-5-yl)acetyl)-5-methyl-2-azabicyclo[3.1.0]hexane-3-carboxamide]
Second: CC(=O)c1nn(CC(=O)N2[C@H](C(=O)Nc3nc(Br)ccc3C)C[C@@]3(C)C[C@@H]23)c2cc3nc(C)sc3cc12 [Compound T-103, (1R,3S,5R)-2-(2-(3-acetyl-6-methyl-1H-thiazolo[5,4-f]indazol-1-yl)acetyl)-N-(6-bromo-3-methylpyridin-2-yl)-5-methyl-2-azabicyclo[3.1.0]hexane-3-carboxamide]
The IC50 of the first is higher: 1 to 10 µM for the first, less than 1 µM for the second.

First: Cc1cc2c(s1)c(C(N)=O)nn2CC(=O)N1[C@H](C(=O)Nc2nc(Br)ccc2C)C[C@@]2(CNC(=O)COCCOCCNC(=O)COCCOCCNC(=O)CC[C@H](NC(=O)CCCCCCCCCCCCCCCCC(=O)O)C(=O)O)C[C@@H]12 [Compound T-100, (S)-1-((1R,3S,5R)-3-((6-bromo-3-methylpyridin-2-yl)carbamoyl)-2-(2-(3-carbamoyl-5-methyl-1H-thieno[3,2-c]pyrazol-1-yl)acetyl)-2-azabicyclo[3.1.0]hexan-5-yl)-24-carboxy-3,12,21,26-tetraoxo-5,8,14,17-tetraoxa-2,11,20,25-tetraazatritetracontan-43-oic acid]
Second: Cc1ncc(-c2cc(CC(=O)N3C[C@H](F)C[C@H]3C(=O)Nc3cccc(-c4ccccc4Cl)c3F)cc(-c3cnc(C)nc3)c2)cn1 [Compound T-104, (2S,4R)-1-(2-(3,5-bis(2-methylpyrimidin-5-yl)phenyl)acetyl)-N-(2′-chloro-2-fluoro-[1,1′-biphenyl]-3-yl)-4-fluoropyrrolidine-2-carboxamide]
The IC50 of the first is lower: less than 1 µM for the first, greater than 10 µM for the second.
